≈ marks a conversion by molar mass, not a printed value.
Legend:
[1] = Ionic conductivity of NO2-Ph-SF5-containing electrolytes; assay type: physicochemical
Source text: Theoretical capacities correspond to 8 e^−per molecule. Capacities increased from 292 to 362 mAh·gsub-stack^−1 as concentration increased from 3 M to 4 M, beyond which further gains were negligible. The maximum gravimetric energy of 1085 Wh·kgsub-stack^−1 was obtained at 4.5 M. Capacity and energy decreased with concentrations exceeding 4.5 M due to diminishing supporting solvent (DMSO, ˜16 wt. % of the catholyte at 5 M), which led to significant decline in ionic conductivity from 6.4 to 0.6 mS·cm^−1 from 0.1 M to 5 M (FIG. 24). Additionally, low DMSO content decreases the ability to solubilize LiF, making electrode passivation effects more severe. Capacities remained constant at ˜362 mAh·gsub-stack^−1 from 0.3-1.0 mA·cm^−2 (0.01 C-0.04 C) and decreased moderately thereafter up to 3 mA·cm^−2 (0.12 C), indicating excellent rate capability.

[2] = Solubility/miscibility of reactants in DMSO or 0.1 M LiClO4/DMSO; assay type: physicochemical; conditions: for miscibility with 0.1 M LiClO4/DMSO: even at 50° C.
Source text: To understand the effect of the chain length of the RF group, the discharge profiles of Ph-NO2-C6 (o) vs. Ph-NO2-C8 (o) and Ph-CN-C6 (p) vs. Ph-CN-C8 (p) were compared. As is shown in FIG. 5, up to 11 e- or 15 e- transfer per molecule (calculated based on capacities) can be obtained during discharge for C6 or C8 containing reactants, respectively. […] For example, Ph-CN-C6 (p) is liquid and miscible with DMSO at RT, but its C8 counterpart is solid at RT and is only soluble at elevated temperatures (e.g., 50° C.).

Structure (SMILES)	miscibility with 0.1 M LiClO4/DMSO [2]	solubility / reachable concentration in 0.1 M LiClO4/DMSO ([2]; RT)	also measured
O=[N+]([O-])c1ccc(S(F)(F)(F)(F)F)cc1 [NO2-Ph-SF5, 4-Nitrophenylsulfur pentafluoride]	–	–	ionic conductivity of electrolyte ([1]; 0.1 M NO2-Ph-SF5): 6.4 mS·cm^−1; ionic conductivity of electrolyte ([1]; 5 M NO2-Ph-SF5): 0.6 mS·cm^−1
FC(F)(F)c1ccccc1C=CC(F)(F)C(F)(F)C(F)(F)C(F)(F)C(F)(F)C(F)(F)F [Ph-CF3—C6 (o)]	negligible miscibility	–	–
FC(F)(F)c1ccc(C=CC(F)(F)C(F)(F)C(F)(F)C(F)(F)C(F)(F)C(F)(F)F)cc1 [Ph-CF3—C6 (p)]	negligible miscibility	–	–
N#Cc1ccc(C=CC(F)(F)C(F)(F)C(F)(F)C(F)(F)C(F)(F)C(F)(F)F)cc1 [Ph-CN-C6 (p)]	–	–	miscibility with DMSO ([2]; RT): miscible
N#Cc1ccc(C=CC(F)(F)C(F)(F)C(F)(F)C(F)(F)C(F)(F)C(F)(F)C(F)(F)C(F)(F)F)cc1 [Ph-CN-C8 (p)]	–	not soluble	solubility limit in 0.1 M LiClO4/DMSO ([2]; 50° C.): 800 mM (≈ 438 mg/mL)
O=[N+]([O-])c1ccccc1C=CC(F)(F)C(F)(F)C(F)(F)C(F)(F)C(F)(F)C(F)(F)C(F)(F)C(F)(F)F [Ph-NO2—C8 (o)]	–	2000 mM (≈ 1130 mg/mL)	–
